# ChEMBL document CHEMBL4295262, “Evaluation of the utility of stem-cell derived cardiomyocytes for drug proarrhythmic potential” (2019)
# Legend:
# Details in all cases: human, ipsc-cm
# [1] = (§1) Electrical activity assay on cell lines treated with a given drug. DMSO was used as a vehicle and a control, unblinded dofetilide was used as a control.
# [2] = as §1; assay type: ADME, cell-based; parameters: FPDc: unit not given here
# [3] = as §1; assay type: cell-based; parameters: APDc: unit not given here
# [4] = as §1; remark: listed apart in the source
# [5] = as §1; assay type: ADME, cell-based
# [6] = as §1; assay type: ADME, cell-based; remark: listed apart in the source
# [7] = as §1; remark: listed apart in the source
# [8] = 0.0001 µM, concentration (um) 0.0001 uM
# [9] = 0.001 µM, concentration (um) 0.001 uM
# [10] = 0.01 µM, concentration (um) 0.01 uM
# [11] = 0.1 µM, concentration (um) 0.1 uM
# [12] = 0.9507 µM, concentration (um) 0.950736 uM
# [13] = 3.004 µM, concentration (um) 3.00433 uM
# [14] = 9.494 µM, concentration (um) 9.49367 uM
# [15] = 30 µM, concentration (um) 30 uM
# [16] = 10 µM, concentration (um) 10 uM
# [17] = 100 µM, concentration (um) 100 uM
compound,measurement,setting,value
COc1ccc(CCN2CCC(Nc3nc4ccccc4n3Cc3ccc(F)cc3)CC2)cc1 [ASTEMIZOLE],FPD measurement,[1]; 0.0001 µM,55.11 FPDc
same,FPDc,[1]; 0.0001 µM,55.11
same,FPD measurement,[1]; 0.001 µM,55.33 FPDc
same,FPDc,[1]; 0.001 µM,55.33
same,FPD measurement,[1]; 0.01 µM,57.8 FPDc
same,FPDc,[1]; 0.01 µM,57.8
same,FPD measurement,[1]; 0.1 µM,75.34 FPDc
same,FPDc,[1]; 0.1 µM,75.34
same,FPD measurement,[2]; [8],5 Values Out Of 5 Were Excluded Due To Quiescence Or 0 Apdc
same,FPDc,[2]; [8],53.45
same,FPD measurement,[2]; [9],5 Values Out Of 5 Were Excluded Due To Quiescence Or 0 Apdc
same,FPDc,[2]; [9],49.25
same,FPD measurement,[2]; [10],5 Values Out Of 5 Were Excluded Due To Quiescence Or 0 Apdc
same,FPDc,[2]; [10],53.23
same,FPD measurement,[2]; [11],5 Values Out Of 5 Were Excluded Due To Quiescence Or 0 Apdc
same,FPDc,[2]; [11],40.28
same,APDc,[3]; [8],54.17
same,FPD measurement,[3]; [8],54.17 FPDc
same,APDc,[3]; [9],53.88
same,FPD measurement,[3]; [9],53.88 FPDc
same,APDc,[3]; [10],57.03
same,FPD measurement,[3]; [10],57.03 FPDc
same,APDc,[3]; [11],77.9
same,FPD measurement,[3]; [11],77.9 FPDc
same,FPD measurement,[4]; 0.0001 µM,1 Values Out Of 1 Were Excluded Due To Quiescence Or 0 Fpdc
same,FPDc,[4]; 0.0001 µM,1 Values Out Of 1 Were Excluded Due To Quiescence Or 0 Fpdc
same,FPD measurement,[4]; 0.001 µM,1 Values Out Of 1 Were Excluded Due To Quiescence Or 0 Fpdc
same,FPDc,[4]; 0.001 µM,1 Values Out Of 1 Were Excluded Due To Quiescence Or 0 Fpdc
same,FPD measurement,[4]; 0.01 µM,1 Values Out Of 1 Were Excluded Due To Quiescence Or 0 Fpdc
same,FPDc,[4]; 0.01 µM,1 Values Out Of 1 Were Excluded Due To Quiescence Or 0 Fpdc
same,FPD measurement,[4]; 0.1 µM,1 Values Out Of 1 Were Excluded Due To Quiescence Or 0 Fpdc
same,FPDc,[4]; 0.1 µM,1 Values Out Of 1 Were Excluded Due To Quiescence Or 0 Fpdc
C=C[C@H]1C[N@@]2CC[C@H]1C[C@@H]2[C@@H](O)c1ccnc2ccc(OC)cc12 [QUINIDINE],FPD measurement,[5]; [12],114.6 FPDc
same,FPDc,[5]; [12],6 Values Out Of 6 Were Excluded Due To Quiescence Or 0 Fpdc
same,FPD measurement,[5]; [13],62.36 FPDc
same,FPDc,[5]; [13],6 Values Out Of 6 Were Excluded Due To Quiescence Or 0 Fpdc
same,FPDc,[5]; [14],6 Values Out Of 6 Were Excluded Due To Quiescence Or 0 Fpdc
same,FPDc,[5]; [15],6 Values Out Of 6 Were Excluded Due To Quiescence Or 0 Fpdc
same,FPD measurement,[6]; [12],5 Values Out Of 5 Were Excluded Due To Quiescence Or 0 Apdc
same,FPDc,[6]; [12],23.33
same,FPD measurement,[6]; [13],5 Values Out Of 5 Were Excluded Due To Quiescence Or 0 Apdc
same,FPDc,[6]; [13],5 Values Out Of 5 Were Excluded Due To Quiescence Or 0 Fpdc
same,FPD measurement,[6]; [14],More Than Half The Wells Had A Quiescence Event Or Apdc Readings Of 0
same,FPDc,[6]; [14],More Than Half The Wells Had A Quiescence Event Or Fpdc Readings Of 0
same,FPD measurement,[6]; [15],More Than Half The Wells Had A Quiescence Event Or Apdc Readings Of 0
same,FPDc,[6]; [15],More Than Half The Wells Had A Quiescence Event Or Fpdc Readings Of 0
same,FPD measurement,[1]; 0.9507 µM,66.27 FPDc
same,FPDc,[1]; 0.9507 µM,66.27
same,FPD measurement,[1]; 3.004 µM,More Than Half The Wells Had A Quiescence Event Or Fpdc Readings Of 0
same,FPDc,[1]; 3.004 µM,More Than Half The Wells Had A Quiescence Event Or Fpdc Readings Of 0
same,FPD measurement,[1]; 9.494 µM,More Than Half The Wells Had A Quiescence Event Or Fpdc Readings Of 0
same,FPDc,[1]; 9.494 µM,More Than Half The Wells Had A Quiescence Event Or Fpdc Readings Of 0
same,FPD measurement,[1]; 30 µM,More Than Half The Wells Had A Quiescence Event Or Fpdc Readings Of 0
same,FPDc,[1]; 30 µM,More Than Half The Wells Had A Quiescence Event Or Fpdc Readings Of 0
same,FPD measurement,[2]; [12],5 Values Out Of 5 Were Excluded Due To Quiescence Or 0 Apdc
same,FPDc,[2]; [12],51.68
same,FPD measurement,[2]; [13],5 Values Out Of 5 Were Excluded Due To Quiescence Or 0 Apdc
same,FPDc,[2]; [13],48.01
same,FPD measurement,[2]; [14],5 Values Out Of 5 Were Excluded Due To Quiescence Or 0 Apdc
same,FPDc,[2]; [14],56.69
same,FPD measurement,[2]; [15],5 Values Out Of 5 Were Excluded Due To Quiescence Or 0 Apdc
same,FPDc,[2]; [15],51.52
same,APDc,[7]; 0.9507 µM,66.37
same,FPD measurement,[7]; 0.9507 µM,66.37 FPDc
same,APDc,[7]; 3.004 µM,68.44
same,FPD measurement,[7]; 3.004 µM,68.44 FPDc
same,APDc,[7]; 9.494 µM,More Than Half The Wells Had A Quiescence Event Or Apdc Readings Of 0
same,FPD measurement,[7]; 9.494 µM,More Than Half The Wells Had A Quiescence Event Or Apdc Readings Of 0
same,APDc,[7]; 30 µM,More Than Half The Wells Had A Quiescence Event Or Apdc Readings Of 0
same,FPD measurement,[7]; 30 µM,More Than Half The Wells Had A Quiescence Event Or Apdc Readings Of 0
CC(C)N(CCC(C(N)=O)(c1ccccc1)c1ccccn1)C(C)C (stereo not drawn) [DISOPYRAMIDE],FPD measurement,[5]; [11],49.69 FPDc
same,FPDc,[5]; [11],6 Values Out Of 6 Were Excluded Due To Quiescence Or 0 Fpdc
same,FPD measurement,"[5]; 1 µM, concentration (um) 1 uM",52.18 FPDc
same,FPDc,"[5]; 1 µM, concentration (um) 1 uM",6 Values Out Of 6 Were Excluded Due To Quiescence Or 0 Fpdc
same,FPD measurement,[5]; [16],63.31 FPDc
same,FPDc,[5]; [16],6 Values Out Of 6 Were Excluded Due To Quiescence Or 0 Fpdc
same,FPDc,[5]; [17],6 Values Out Of 6 Were Excluded Due To Quiescence Or 0 Fpdc
same,FPD measurement,[6]; [11],5 Values Out Of 5 Were Excluded Due To Quiescence Or 0 Apdc
same,FPDc,[6]; [11],23.29
same,FPD measurement,"[6]; 1 µM, concentration (um) 1 uM",5 Values Out Of 5 Were Excluded Due To Quiescence Or 0 Apdc
same,FPDc,"[6]; 1 µM, concentration (um) 1 uM",24.45
same,FPD measurement,[6]; [16],5 Values Out Of 5 Were Excluded Due To Quiescence Or 0 Apdc
same,FPDc,[6]; [16],24.5
same,FPD measurement,[6]; [17],More Than Half The Wells Had A Quiescence Event Or Apdc Readings Of 0
same,FPDc,[6]; [17],More Than Half The Wells Had A Quiescence Event Or Fpdc Readings Of 0
same,FPD measurement,[2]; [11],5 Values Out Of 5 Were Excluded Due To Quiescence Or 0 Apdc
same,FPDc,[2]; [11],48.43
same,FPD measurement,"[2]; 1 µM, concentration (um) 1 uM",5 Values Out Of 5 Were Excluded Due To Quiescence Or 0 Apdc
same,FPDc,"[2]; 1 µM, concentration (um) 1 uM",75.52
same,FPDc,[2]; [16],26.6
same,FPD measurement,[2]; [17],5 Values Out Of 5 Were Excluded Due To Quiescence Or 0 Apdc
same,FPDc,[2]; [17],18.51
same,FPD measurement,[4]; 0.1 µM,1 Values Out Of 1 Were Excluded Due To Quiescence Or 0 Fpdc
same,FPDc,[4]; 0.1 µM,1 Values Out Of 1 Were Excluded Due To Quiescence Or 0 Fpdc
same,FPD measurement,[4]; 1 µM,1 Values Out Of 1 Were Excluded Due To Quiescence Or 0 Fpdc
same,FPDc,[4]; 1 µM,1 Values Out Of 1 Were Excluded Due To Quiescence Or 0 Fpdc
same,FPD measurement,[4]; 10 µM,1 Values Out Of 1 Were Excluded Due To Quiescence Or 0 Fpdc
same,FPDc,[4]; 10 µM,1 Values Out Of 1 Were Excluded Due To Quiescence Or 0 Fpdc
same,FPD measurement,[4]; 100 µM,1 Values Out Of 1 Were Excluded Due To Quiescence Or 0 Fpdc
same,FPDc,[4]; 100 µM,1 Values Out Of 1 Were Excluded Due To Quiescence Or 0 Fpdc
same,APDc,[7]; 0.1 µM,56.58
same,FPD measurement,[7]; 0.1 µM,56.58 FPDc
same,APDc,[7]; 1 µM,63.45
same,FPD measurement,[7]; 1 µM,63.45 FPDc
same,APDc,[7]; 10 µM,68.66
same,FPD measurement,[7]; 10 µM,68.66 FPDc
same,APDc,[7]; 100 µM,66.87
same,FPD measurement,[7]; 100 µM,66.87 FPDc
